Data set [1] concerns the target protein synthesis in rabbit reticulocyte lysate. Nature of the data set: Inhibition of protein synthesis in rabbit reticulocyte lysates (luciferase mRNA translation). Type of data set: biochemical. The method, then:
The TnT® Quick Coupled Transcription/Translation System from Promega (WI, USA; L1170) was used to evaluate inhibitory effects of ipecac alkaloids and cycloheximide on protein synthesis. Assay conditions were employed as recommended by the manufacturer. Briefly, reactions (20 μl) contained 80 % TNT Quick master mix, 20 µM methionine, 40 ng/µL luciferase RNA (Promega; L4561), and test chemicals. Samples were incubated at 30 °C for 90 min and diluted 10-fold with PBS. An aliquot (2 μl) was mixed with 20 μl of luciferase assay reagent (Promega; E1500) and luminescence was measured with a Turner Designs luminometer (model TD-20/20).

The subject of data set [2] is protein synthesis in Vero E6 cells. Nature of the data set: Puromycin pulse labeling, protein synthesis in cultured Vero E6 cells. It is filed as cell-based, African green monkey. As for the experimental part:
Vero E6 cells were seeded at 30,000 cells per cm^2 in 6-well plates. […] Control experiments were conducted in medium alone and medium containing cycloheximide or DMSO. After 12 min, cells were washed with 37° PBS and then allowed to recover in drug-free 2 % FBS-EMEM for 30 min. Cell pellets, collected by trypsinization and centrifugation for 5 min at 5 000 rpm at 4 °C, were re-suspended in ice-cold PBS and centrifugation was repeated. Collected cells were stored at −80 °C.
Antibodies used were anti-puromycin monoclonal (TFS; MABE34), goat anti-mouse-HRP (TFS, Invitrogen; G21040), rabbit anti-β-actin (Cell Signaling, 4967S, lot 9) and HRP-conjugated goat-anti-rabbit (Cell Signaling, 7074S, lot 27). Protein extract and immunoblotting methods were done by standard methods reported here as Supplementary Information.
Vero E6 cells were seeded at 30,000 cells per cm^2 in 6-well plates. […] Puromycin labelling protocols have been well established by other laboratories and a general review of the methods has been published^79. Control experiments were conducted in medium alone and medium containing cycloheximide or DMSO. Following incubation with puromycin for 12 min, the medium was quickly removed and cells were washed with warm PBS and then allowed to recover in drug-free 2% FBS-EMEM for 30 min. Cell pellets, collected by trypsinization and centrifugation for 5 min at 5 000 rpm at 4°C, were re-suspended in ice-cold PBS and the centrifugation was repeated. Collected cells were stored at -80°C until subjected to the protein preparation as noted below.
Defrosted cell pellets were re-suspended in 120 µl of RIPA (radio-immunoprecipitation) buffer (Sigma; R0278) containing 7 µl of protease inhibitors (Sigma; P8340). Samples were incubated on ice for 40 min with occasional gentle mixing. Cell debris was removed by a 20 min centrifugation at 16,000 g at 4°C and supernatants were stored at -80°C. Protein was measured by the Pierce^TM bicinchoninic acid (BCA) assay (Thermo Fisher Scientific [TFS], MA, USA; 23250), using bovine serum albumin as a standard, according to protocols recommended by the manufacturer.
For immunoblotting, 10 µg of protein was combined with Laemmli buffer containing 10% β-mercaptoethanol, heated at 95°C for 5 min and loaded on 4-20% Mini-PROTEAN® TGX™ precast protein gels. Samples were resolved by electrophoresis in Tris-Gly-SDS buffer and transferred to nitrocellulose membranes. Transfer was conducted in Tris-Gly buffer containing 20% methanol at 4-6 V/cm^2 for one hour. Membranes were blocked in 10 mM sodium phosphate buffer containing 150 mM NaCl (pH 7.8), 5% milk and 0.1% TWEEN20 (PBST) at room temperature for at least one hour, and then incubated overnight with primary anti-puromycin antibodies (TFS; MABE343 mouse monoclonal antibodies clone 12D10; 1:12,500) at 4°C. Membranes were washed for five minutes three times in PBST and incubated with secondary goat anti-mouse horseradish peroxidase (HRP) -conjugated antibodies (TFS, Invitrogen; G21040; 1:25,000) for 90 min. After three more rounds of washing as above, membranes were incubated with an HRP substrate (TFS; 34077) for one minute and chemoluminescence was visualized by exposing membranes to film for 1, 2, 5, 10 and 30 min.
For β-actin staining, the same membranes used for puromycin immunostaining were washed four times, 5 min each, in 20 mM Tris-buffered saline containing 500 mM sodium chloride (pH 7.5) and 0.1% TWEEN20 (TBST) and stripped by two rounds of 20 and 10 min washes at 50°C in glycine buffer (pH 2.2) containing 0.1 % SDS (W/V) and 1% TWEEN20. Membranes were then washed at room temperature with PBS (3x10 min) and PBST (2x5min). Blocking, primary (1:4,000) and secondary (1:5,000) antibody staining was conducted as above. Primary rabbit anti-β-actin antibodies were obtained from Cell Signaling (4967S, lot 9) and secondary HRP-conjugated goat-anti-rabbit antibodies were from the same company (7074S, lot 27). […]

Data set [3] can be described thus: MTS assay, growth inhibition and toxicity in non-infected Vero E6 cells. Type of data set: cell-based, African green monkey. As to conditions: African green monkey, non-infected Vero E6 cells, MTS, 72 h; read-out: Fifty percent effect (CC50) in non-infected Vero E6. The method, then:
Detailed methods are provided in Supplementary Information.
Vero E6 and BEC-hACE2 cells were grown to 70-80% density in their maintenance media and exposed to various concentrations of ipecac alkaloids (0.0125 – 200 µM) under standard culture conditions for 48-72 h and 24 h, respectively. Controls with varying amounts of DMSO and no DMSO were included also. Vero E6 cells were incubated with drugs in 2% FBS-EMEM, while BEC-HACE2 cells were grown and treated in complete PCS-300-03 medium with supplements. Similar treatments were also conducted using fully confluent non-growing BEC-hACE2 cells. At the end of the exposure period, MTS reagent (Promega G3580) was added at 1/5th of the medium volume and color was allowed to develop by incubation of the plates for an hour in a cell culture incubator. To stop reactions, SDS was added to a final concentration of 2% and optical density of samples was measured at 450 or 490 nm, depending on the model of spectrophotometer (PharmaciaBiotech, NJ, USA; UV spectrophotometer, model Ultrospec2000) or plate reader (Molecular Devices, CA, USA; model Filter Max F5 Multi-mode microplate reader) available at the time of experiment.
For orientation: Formazan colour is commonly taken as a measure of viable cells.

Another data set concerns HCoV-OC43. Nature of the data set: Antiviral activity against HCoV-OC43 in Vero E6 cells (RT-qPCR of N-gene). It is filed as cell-based. The method, then:
Vero E6 cells (∼5 × 10^4 cells/cm^2 in 24-well plates) were infected with […] at MOI of 20 genomes per cell in 2 % FBS-EMEM at 33 °C, 5 % CO2 with gently mixing for 2 h. Infection medium was removed, cells were washed with fresh medium followed by the addition of compounds at indicated concentrations in 2 % FBS-EMEM. After 72 h, 100 µL of medium was collected and stored at −80 °C for viral RNA isolation and RT-qPCR analysis as detailed below. Drugs were added to the medium prior to and after viral absorption for comparison.
HCoV-OC43 RNA was isolated from 100 µL of medium using Quick-RNA Viral Kit-DX (Zymo Research, CA, USA; R1035). The relative amount of viral genomic RNA was determined with Luna Universal One-Step RT-qPCR Kit (New England Biolabs, MA, USA; E3005). […]
RT-qPCR cycles were set for 20 min at 55 °C, 1 min at 95 °C followed by 45 cycles of 95 °C for 10 s, 48 °C for 30 s and 60 °C for 1 min. The threshold cycle (Ct) for each sample was determined using the Opticon Monitor 3 Program (BioRad). Drug effects on viral propagation were evaluated assuming that a difference of one cycle corresponds to a two-fold difference in the number of copies of viral RNA. Ct values obtained for drug-free samples were considered as 100 % viral propagation.
On the technique in general: Quantitative PCR measures a nucleic acid by following its amplification.

The record followed here is publication PMC10831786 (Virus Research, 2024).

With `C[C@@H]1C[C@@H]([C@H](O)CC2CC(=O)NC(=O)C2)C(=O)[C@@H](C)C1` [CHX, Cycloheximide, reference compound], the IC50 was 31 nM in data set [1] (luciferase mRNA, 30 °C, 90 min) and about 30 nM in data set [2] (Chlorocebus sabaeus, Vero C1008, Vero E6 cells, 1 h exposure, puromycin labeling, read-out: 50 % inhibitory activities, protein synthesis).

For orientation: CC50 means the concentration that lowers cell viability or growth by half. Turning to `CCC1=C(C[C@@H]2NCCc3cc(OC)c(OC)cc32)C[C@@H]2c3cc(OC)c(OC)cc3CCN2C1` [DHE1, 4H-Benzo[a]quinolizine, 3-ethyl-1,6,7,11b-tetrahydro-9,10-dimethoxy-2-[[(1S)-1,2,3,4-tetrahydro-6,7-dimethoxy-1-isoquinolinyl]methyl]-, (11bR)-], in data set [3], the CC50 at 72 h worked out at 193 ± 63.6 µM. In data set [1] (concentration range 0.1 - 100 μM), the “Inhibitory effects on translation in rabbit reticulocyte lysate” value is “no inhibitory effects”. Besides, the “IC50, protein synthesis inhibition in rabbit reticulocyte lysate” value in data set [1] (luciferase mRNA, 30 °C, 90 min) is listed as “Not active”. Moreover, the “Protein synthesis,%” value in data set [2] (Vero E6, 0.1 μM) is 0%. The “Protein synthesis, puromycilation signal” value in data set [2] (Vero E6, >1 μM) was “signal increase”. Moreover, the “Concentration above which inhibition of puromycilation is not sustained” value in data set [2] (Vero E6 cells) was over 1 µM. Besides, the “Efficiency as protein synthesis inhibitors” value in data set [2] (cultured cells, puromycin labeling) is reported as “inefficient as protein synthesis inhibitors”. Also, the IC50 with HCoV-OC43 (Betacoronavirus 1, OC43, Vero C1008, Vero E6, drug added after viral absorption, 72 hpi, read-out: Antiviral IC50) is 1030 ± 446 nM. In addition, in the data set on HCoV-OC43 (HCoV-OC43, Vero E6, 72 hpi), the “Selectivity index, (SI) CC50/IC50” value stood at 188.
